In patent publication US5281710A, “Dynemicin analogs: synthesis, methods of preparation and use” (The Scripps Research Institute, priority 1992, dated 1994):

How the values were obtained:
[1] = tested on: Ovcar-4 ovarian carcinoma cells; assay: Sulforhodamine B cytotoxicity, Ovcar-4; type: cell-based; conditions: Homo sapiens
Protocol: (§1) In addition to the screening already discussed, several of the before-described compounds and chimeras were screened against several or all of a panel of ten to twenty-five cancerous cell lines as target cells and seven "normal" cell preparations. This screening utilized a sulforhodamine B cytotoxidity assay as discussed below.
(§2) IC50 values; i.e., the concentration of Compound required to kill one-half of the treated cells, were then calculated.

[2] = tested on: HL-60 promyeocytic leukemia cells; assay: Sulforhodamine B cytotoxicity, HL-60; type: cell-based; conditions: Homo sapiens, HL-60, HL-60; read-out: IC50
In short: (§3)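 Values given are IC50s, defined as the compound concentration at which half the treated cells were killed in a sulforhodamine B assay. The panel screened comprised ten to twenty-five tumour lines and seven normal cell preparations.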

[3] = tested on: HT-29 colon carcinoma cells; assay: Sulforhodamine B cytotoxicity, HT-29; type: cell-based; conditions: Homo sapiens, HT-29, colon carcinoma H-29 (Table 4) / HT-29 (Table 5); read-out: IC50
Protocol: as §1, §2

[4] = Sulforhodamine B cytotoxicity, HMEC; type: cell-based, human; conditions: human, read-out: cell viability
Protocol: as §1, §2
HMEC Human mammary epithelial cells

[5] = tested on: SK-Mel-28, M-14, M-21, Capan-1, Ovcar-3, Ovcar-4, UCLA-P-3, U-87, U-251 and Molt-4 cell lines; type: cell-based; conditions: ten tumor cell lines
Protocol: In other studies, IC50 values were determined for the anti-tumor agents dynemicin A, calicheamicin γ1^I, taxol, vinblastine/vincristine, doxorubicin, actinomycin D and bleomycin sulfate against the SK-Mel-28, M-14, M-21, Capan-1, Ovcar-3, Ovcar-4, UCLA-P-3, U-87, U-251 and Molt-4 cell lines.

[6] = tested on: EMT6 mammary tumor in Balb/c BYJ mice; assay: In vivo EMT6 mammary tumor in Balb/c BYJ mice; parameters: species or system mouse; conditions: 10 mg/kg on days 1, 5 and 9
Protocol: The data of FIG. 10 illustrate a further in vivo study using compound 153. Here, groups of 6-10 week old, female Balb/c BYJ mice (obtained from The Scripps Research Institute breeding colony, La Jolla, Calif.) (8 per group) were inoculated with 5×10^5 cells of the EMT6 tumor cell line, a mammary tumor. The mice were then treated with normal saline (control) or normal saline containing 10 mg/kg of Compound 153 (study) on days 1, 5 and 9 after the inoculation.

M-21 melanoma cells [7] = assay: Inhibition of [3H]thymidine uptake (DNA synthesis) in M-21 cells; type: cell-based, human; conditions: 72 hours incubation
Protocol: (§4) These determinations were made by standard tissue growth procedures using RPMI tissue culture medium supplemented with 10 percent fetal bovine serum plated at 10^4 cells in 100 μl of medium in 96-well tissue culture plates. The cells were permitted to adhere for 24 hours, and the dilutions of Compound 153 were added in 10 μl volumes and incubated for 72 hours at 37° C. in a humidified atmosphere containing five percent CO2. The plates were then washed three times with tissue culture medium and again incubated for 24 hours, as above. Each well received 1 μCi of ^3 H-labeled substrate, and after an additional 16 hours of incubation, cells were collected on glass fiber filters with a Skatron cell harvester. Finally, the filters were placed in Ecolume scintillation cocktail (ICN, Irvine, Calif.), and radioactivity was measured with a Beckeman scintillation counter. Incorporation of the ^3 H label was calculated as a percentage of untreated controls.

[8] = tested on: tumor cells and "normal" cells; assay: Relative activity against tumor cells and normal cells; type: cell-based
Source text: In contrast, 100 percent of normal human mammary epithelial cells (HMEC) were viable at the same concentration.

[9] = tested on: multiple-drug resistant TCAF-DAX cell line; assay: Cytotoxicity, TCAF-DAX; type: cell-based
Protocol: as §1, §2

H-522 lung cells = assay: Sulforhodamine B cytotoxicity, H-522; type: cell-based; conditions: Homo sapiens, NCI-H522
Protocol: as §1, §2

U-87 UG astocytoma cells = assay: Sulforhodamine B cytotoxicity, U-87; type: cell-based
Protocol: as §1, §2

φX174 Form I DNA = assay: φX174 supercoiled DNA cleavage, agarose gel; type: biochemical
[10] = tested on: DNA in Molt-4 leukemia cells; assay: DNA strand breakage in Molt-4 cells (ethidium bromide fluorimetry); type: cell-based
Protocol: In another study, Molt-4 leukemia cells were treated with ethidium bromide, which led to uptake by DNA through intercalcation and consequent fluorescence. Exposure of those cells to Compound 153 (10 μM at 10^7 cells/ml) led to rapid DNA strand breakage as determined by fluorimetry, resulting in 95 percent destruction after four hours at 37° C. […] These observations implicate DNA strand cleavage as the direct cause of cell destruction in these studies.

M-21 melanoma cells [11] = assay: Inhibition of [3H]leucine uptake (protein synthesis) in M-21 cells; type: cell-based, human; conditions: 72 hours incubation
Protocol: as §4

[12] = tested on: P-388 mouse lymphoma cells; assay: Sulforhodamine B cytotoxicity, P-388; type: cell-based; conditions: Mus musculus, P388; P-388; read-out: IC50
Protocol: as §1, §2

H-358 lung cells = assay: Sulforhodamine B cytotoxicity, H-358; type: cell-based; conditions: Homo sapiens, NCI-H358
Protocol: as §1, §2

Chemical stability = type: physicochemical
[13] = tested on: Capan-1 pancreatic carcinoma cells; assay: Sulforhodamine B cytotoxicity, Capan-1; type: cell-based; conditions: Homo sapiens, CAPAN-1, Capan-1; read-out: IC50
In short: as §3

M-14 melanoma cells = assay: Sulforhodamine B cytotoxicity, M-14; type: cell-based; conditions: Homo sapiens, M14
Protocol: as §1, §2
UCLA M-14 Dr. R. Reisfeld of The Scripps Research

[14] = tested on: H-322 lung carcinoma cells; assay: Sulforhodamine B cytotoxicity, H-322; type: cell-based; conditions: NCI-H322; H-322; read-out: IC50
Protocol: as §1, §2

O=C(OCCS(=O)(=O)c1ccccc1)N1c2ccc(OCCO)cc2C23OC24CCCC3C#C/C=C\C#CC14 (stereo not shown) [Compound 153]
IC50 [1]: 780 nM | IC50 [2]: 0.036 nM | IC50 [3]: 1600 nM | viability at 72 h ([4]; 10^-6 to 10^-7 M): 100% | viability at 72 h, 0.01 µM ([4]; 10^-8 M): 100% | relative potency among agents across cell lines [5]: comparable to most of the other agents against the other cell lines | tumor growth of treated tumors [6]: much slower, and almost linear | tumor volume vs control ([6]; day 8): slight difference in the average volume of the tumors, with the study group having a lower tumor burden | control group's average tumor volume relative to study group ([6]; day 20): about seven | inhibition of [3H]thymidine uptake (DNA synthesis) (M-21 melanoma cells [7]): severely impair the ability of M-21 melanoma cells to synthesize DNA | selectivity between normal and cancer cells (qualitative) [8]: relative selectivity for tumor cell lines as opposed to normal, untransformed cells | times more active against tumor cells than against normal cells ([8]; except for the three melanoma cell lines): 10^1 -10^8 times | IC50 [9]: 1.7 nM | IC50 (H-522 lung cells): 98 nM | IC50 (U-87 UG astocytoma cells): 780 nM | DNA cleavage (φX174 Form I DNA; 1.0 mM, 24 hours, acidic pH): no DNA cleavage activity | DNA cleavage (φX174 Form I DNA; 1.0 mM, 24 hours, pH 7.0 and higher): some DNA cleavage activity | DNA cleavage (φX174 Form I DNA; pH 8.5, 24 or 48 hours, 37° C.): strong DNA cleavage activity | DNA strand breakage (destruction) ([10]; 10 μM at 10^7 cells/ml, four hours at 37° C.): 95% | delay of cell death relative to DNA strand breakage ([10]; 10 μM, Molt-4 cells): two | inhibition of [3H]leucine uptake (protein synthesis) (M-21 melanoma cells [11]): severely impair | IC50 [12]: 4.6 nM | IC50 (H-358 lung cells): 200 nM | chemical stability (Chemical stability): decompose cleanly to form phenyl vinyl sulfone and the corresponding free amine enediyne Compound 153a | time remaining intact (Chemical stability; pH 7.0 phosphate buffer (100 mM), 37° C.): ≥ 1.5 h | IC50 [13]: 3.9 nM | IC50 (M-14 melanoma cells): 1600 nM | IC50 [14]: 390 nM
